According to patent US20140271926A1, “METHODS OF USE OF GLUTAMINE SYNTHETASE INHIBITORS” (CALIFORNIA INSTITUTE OF TECHNOLOGY, priority 2013, published 2014):

Columns and labels:
[1] = target: T1, FlagCRBN (Homo sapiens, UniProt Q96SW2); assay: FlagCRBN immunoprecipitation from stable HEK293T cells, immunoblot for CRL4CRBN subunits and GS; format: cell-based; conditions: FIG. 2
T1 construct: expressed in transfected cells
Method: To confirm the results of the quantitative mass spectrometry, ^FlagCRBN was immunoprecipitated from the stable HEK293T cell line and immunoblotted for CRL4^CRBN subunits and GS. As expected, thalidomide enhanced recovery of GS but had no effect on binding of DDB1 or CUL4A (FIG. 2). In order to confirm this finding, endogenous proteins expressed in cells were analyzed that are responsive to the therapeutic effects of IMiDs. For this purpose, endogenous CRBN as immunoprecipitated from MM.1S multiple myeloma cells.
Immunoprecipitation. Cells were lysed in immunoprecipitation buffer (10 mM Tris [pH 7.5], 150 mM NaCl, 1% Triton X-100) containing a protease inhibitor cocktail, and immunoprecipitated with the indicated antibodies, such as anti-CRBN antibody for 2-4 hours at 4° C., followed by incubation with protein G sepharose 4 Fast Flow (GE Healthcare) for 1 hour at 4° C. Immunoprecipitated proteins were resolved by SDS/PAGE and analyzed by immunoblotting with the indicated antibodies.

[2] = target: T1, FlagCRBN; assay: SILAC quantitative mass spectrometry of FlagCRBN immunoprecipitates, thalidomide vs DMSO; format: cell-based; conditions: 50 μM thalidomide 4 hours vs DMSO
Method: To identify IMiD-modulated substrates of CRBN, a human embryonic kidney (HEK) 293T cell line was generated that stably expresses CRBN with a Flag tag appended to its amino terminus (^FlagCRBN). ^FlagCRBN cells were grown in medium formulated with isotopically light lysine and arginine (light medium) or in medium formulated with isotopically heavy lysine and arginine (heavy medium). Cells growing in heavy medium were treated with 50 μM thalidomide for 4 hours, whereas cells growing in light medium were treated with DMSO. ^FlagCRBN immunoprecipitates were prepared in parallel, mixed, and analyzed by quantitative mass spectrometry. […] Essentially identical results were obtained in a label swap experiment. […] (Lopez-Girona et al., 2012, supra and Zhu et al. 2011 supra.)
Preparation of ^FlagCRBN for mass spectrometry (MS). SILAC-labeled cultures of the stable cell lines were grown as described Lee et al., 2011, Molecular & Cellular Proteomics, 10: M110 006460,the entire contents of which are herein incorporated by reference. Briefly, HEK293T cells, stably expressing ^FlagCRBN, were cultured in medium formulated with isotopically light lysine and arginine (‘light’ medium) or in medium formulated with isotopically heavy lysine and arginine (‘heavy’ medium). The cells growing in ‘heavy’ medium were treated with thalidomide (a final concentration of 50 μM) for 4 hours, while the cells growing in ‘light’ medium were treated with DMSO. SILAC experiments were repeated after swapping the SILAC labels in which the cells cultured in ‘light’ and ‘heavy’ medium were treated with thalidomide and DMSO, respectively. The ^FlagCRBN immunoprecipitates were prepared, mixed, and analyzed by quantitative mass spectrometry.
MS data analysis. Thermo raw files were processed and searched with MaxQuant (v. 1.4.1.2), as described in Cox et al., 2008, Nat. Biotechnol. 26:1367; and Cox et al., 2011, J. of Proteome Research, 10:1794, the entire contents of both of which are herein incorporated by reference. Trypsin was specified as the digestion enzyme with up to two missed cleavages. Protein N-terminal acetylation (+42.0106) and methionine oxidation (+15.9949) were specified as variable modifications. Carbamidomethylation of cysteine (+57.0215) was specified as a fixed modification. Arg6 ([…]) and Lys8 (+8.0142) were specified as the SILAC labels. Requantification and match between runs were enabled. Precursor ion tolerance was 7 ppm and fragment ion tolerance was 0.5 Da. All human Uniprot entries were searched (148298 sequences, downloaded on 05Dec12) along with a contaminant database containing proteins such as keratin and trypsin (247 sequences). (Apweiler et al., 2013, Nucleic Acids Research, 41: D43, the entire contents of which are herein incorporated by reference.) Additionally, to determine the false discovery rate, a decoy database was constructed by reversing the target database. While no minimum score was specified, the protein and peptide level false discovery rates were fixed at 1% and we required that all proteins reported were identified in both biological replicates by at least two peptides.
Proteins were quantified by first calculating the median of all peptide ratios within each biological replicate and then calculating the mean of the two biological replicate ratios. Only peptides uniquely assignable to the protein group were used for quantification. […] Individual ratio measurement error was estimated using pooled variance and overall ratio standard error was calculated using bootstrap analysis. […] Q-values were calculated from the p-values using the Storey method for calculating false discovery rates as described in Storey et al., 2002, J. Roy Stat. Soc. B., 64:479, the entire contents of which is herein incorporated by reference. A q-value of 0.05 was used as a threshold for significance.

T1 sequence (Q96SW2 whole entry): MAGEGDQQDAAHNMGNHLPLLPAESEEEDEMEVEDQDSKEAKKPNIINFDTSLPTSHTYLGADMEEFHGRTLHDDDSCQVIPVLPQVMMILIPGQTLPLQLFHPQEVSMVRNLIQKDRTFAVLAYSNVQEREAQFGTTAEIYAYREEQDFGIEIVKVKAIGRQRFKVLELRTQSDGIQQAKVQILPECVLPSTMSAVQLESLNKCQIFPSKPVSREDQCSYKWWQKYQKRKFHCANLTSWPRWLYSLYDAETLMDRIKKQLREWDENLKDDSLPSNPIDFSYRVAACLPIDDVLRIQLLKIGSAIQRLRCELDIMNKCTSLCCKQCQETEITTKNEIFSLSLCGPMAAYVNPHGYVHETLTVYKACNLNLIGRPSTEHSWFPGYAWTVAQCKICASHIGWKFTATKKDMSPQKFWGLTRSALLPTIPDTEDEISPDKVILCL

O=C1CCC(N2C(=O)c3ccccc3C2=O)C(=O)N1 (stereo not shown) [thalidomide, Thalidomide]
binding of DDB1 or CUL4A to FlagCRBN [1]: no effect
recovery of GS with FlagCRBN [1]: enhanced
recovery of FlagCRBN, subunits of CRL4 (CUL4, DDB1, RBX1) and subunits of CSN ([2]; FIG. 1): recovered in equal amounts
recovery of glutamine synthetase (GS) in FlagCRBN immunoprecipitates ([2]; FIG. 1): recovered in greater amounts
+/−Thalidomide Ratio ([2]; protein ATP5A1): 0.7541
+/−Thalidomide Ratio ([2]; protein ATP5B): 0.6236
+/−Thalidomide Ratio ([2]; protein BAG2): 0.6303
+/−Thalidomide Ratio ([2]; protein BOLA2): 0.5989
+/−Thalidomide Ratio ([2]; protein C11orf84): 0.7032
+/−Thalidomide Ratio ([2]; protein C12orf23): 0.6718
+/−Thalidomide Ratio ([2]; protein C22orf28): 0.7109
+/−Thalidomide Ratio ([2]; protein CCT5): 0.8584
+/−Thalidomide Ratio ([2]; protein CCT6A): 0.8483
+/−Thalidomide Ratio ([2]; protein CCT8): 0.8368
+/−Thalidomide Ratio ([2]; protein CLNS1A): 0.627
+/−Thalidomide Ratio ([2]; protein CMBL): 0.7463
+/−Thalidomide Ratio ([2]; protein COMT): 0.5482
+/−Thalidomide Ratio ([2]; protein DDX5, DKFZp686J01190): 0.6321
+/−Thalidomide Ratio ([2]; protein DKFZp686K23100, MATR3, DKFZp686K0542): 0.526
+/−Thalidomide Ratio ([2]; protein FUS): 0.5807
+/−Thalidomide Ratio ([2]; protein GLNS (glutamine synthetase)): 2.508
+/−Thalidomide Ratio ([2]; protein GLUD1, GLUD2): 0.7935
+/−Thalidomide Ratio ([2]; protein HNRNPA2B1): 0.4533
+/−Thalidomide Ratio ([2]; protein HNRNPAB): 0.569
+/−Thalidomide Ratio ([2]; protein HNRNPC, hCG_1641229, HNRPCL1, HNRNPCL1, LOC440563, LOC649330): 0.4229
+/−Thalidomide Ratio ([2]; protein HNRNPK, HNRPK): 0.5905
+/−Thalidomide Ratio ([2]; protein HNRNPL): 0.44
+/−Thalidomide Ratio ([2]; protein HNRNPM, ORF, HNRPM): 0.6977
+/−Thalidomide Ratio ([2]; protein HNRNPU, HNRPU): 0.7137
+/−Thalidomide Ratio ([2]; protein HSP90AA1): 0.7454
+/−Thalidomide Ratio ([2]; protein HSP90AB1): 0.79
+/−Thalidomide Ratio ([2]; protein IMPDH2): 0.8138
+/−Thalidomide Ratio ([2]; protein IVNS1ABP): 0.6131
+/−Thalidomide Ratio ([2]; protein KIF11): 0.6737
+/−Thalidomide Ratio ([2]; protein LUC7L2): 0.7578
+/−Thalidomide Ratio ([2]; protein PDIA6): 0.8515
+/−Thalidomide Ratio ([2]; protein PIH1D1): 0.5153
+/−Thalidomide Ratio ([2]; protein PRPS1): 0.7264
+/−Thalidomide Ratio ([2]; protein PRPS2): 0.6445
+/−Thalidomide Ratio ([2]; protein PUF60): 0.5471
+/−Thalidomide Ratio ([2]; protein RBM39, DKFZp781C0423, DKFZp686A11192, DKFZp781I1140, DKFZp686C17209): 0.6182
+/−Thalidomide Ratio ([2]; protein RBMX, RBMXL1): 0.5004
+/−Thalidomide Ratio ([2]; protein RIOK1): 0.6187
+/−Thalidomide Ratio ([2]; protein RPL26, KRBA2, RPL26L1): 0.698
+/−Thalidomide Ratio ([2]; protein RPL27): 0.7987
+/−Thalidomide Ratio ([2]; protein RPL35, LOC154880): 0.6839
+/−Thalidomide Ratio ([2]; protein RPS3A): 0.7607
+/−Thalidomide Ratio ([2]; protein RPS8): 0.8186
+/−Thalidomide Ratio ([2]; protein RPS25): 0.7348
+/−Thalidomide Ratio ([2]; protein RPSA, RPSAP58, LAMR1P15): 0.8005
+/−Thalidomide Ratio ([2]; protein RUVBL1): 0.7099
+/−Thalidomide Ratio ([2]; protein RUVBL2): 0.6927
+/−Thalidomide Ratio ([2]; protein SF3A3): 0.5959
+/−Thalidomide Ratio ([2]; protein SFRS11, SRSF11): 0.573
+/−Thalidomide Ratio ([2]; protein SNRPD1): 0.6168
+/−Thalidomide Ratio ([2]; protein SNRPD3): 0.6583
+/−Thalidomide Ratio ([2]; protein SNRPF): 0.6071
+/−Thalidomide Ratio ([2]; protein SNRPN, SNRPB): 0.6605
+/−Thalidomide Ratio ([2]; protein SPIN1): 0.6689
+/−Thalidomide Ratio ([2]; protein SRSF3, SFRS3): 0.651
+/−Thalidomide Ratio ([2]; protein STK38): 0.7445
+/−Thalidomide Ratio ([2]; protein TCP1): 0.8927
+/−Thalidomide Ratio ([2]; protein TRIM21): 0.7125
+/−Thalidomide Ratio ([2]; protein TXN): 0.7037
+/−Thalidomide Ratio ([2]; protein U2AF2): 0.6123
+/−Thalidomide Ratio ([2]; protein VCP, DKFZp434K0126): 0.7702
+/−Thalidomide Ratio ([2]; protein WDR77): 0.5895
